Results on 19 compounds are retold here after patent US12065442B2, “Tropomyosin receptor kinase (TRK) degradation compounds and methods of use” (Cullgen (Shanghai), Inc., priority 2018, dated 2024).

Entries after “also recorded” stand apart in the source; their conditions may differ.

One experiment concerns KM12 cells. In words: Cell viability assay (CellTiter-Glo) in KM12 cells. It counts as cell-based. As to conditions: 500 nM, 12-point 2-fold serial dilution, 3 days (FIG. 4A). On the technique in general: ATP-based viability assays read luminescence as a measure of living cells.
Regarding `O=C1CCC(N2C(=O)c3cccc(NCCOCCOCCOCCC(=O)N4CCN(c5ccc(C(=O)Nc6n[nH]c7ccc(Cc8cc(F)cc(F)c8)cc67)c(NC6CCOCC6)c5)CC4)c3C2=O)C(=O)N1` (centres unmarked) [CPD-057, N-(5-(3,5-Difluorobenzyl)-1H-indazol-3-yl)-4-(4-(3-(2-(2-(2-((2-(2,6-dioxopiperidin-3-yl)-1,3-dioxoisoindolin-4-yl)amino)ethoxy)ethoxy)ethoxy)propanoyl)piperazin-1-yl)-2-((tetrahydro-2H-pyran-4-yl)amino)benzamide], the “viability of KM12 cells” value is given as “inhibited the viability; also recorded: dose-dependently suppressed viability”.

Still in this experiment, the particulars now being: Homo sapiens, 72 h; Table 2; KM12 cell viability, CellTiter-Glo, 3 days; read-out: IC50.
For the compound `Cc1ncsc1-c1ccc(CNC(=O)[C@@H]2C[C@@H](O)CN2C(=O)[C@@H](NC(=O)CCOCCC(=O)N2CCN(c3ccc(C(=O)Nc4n[nH]c5ccc(Cc6cc(F)cc(F)c6)cc45)c(NC4CCOCC4)c3)CC2)C(C)(C)C)cc1` [CPD-048, (2S,4R)-1-((S)-2-(3-(3-(4-(4-((5-(3,5-Difluorobenzyl)-1H-indazol-3-yl)carbamoyl)-3-((tetrahydro-2H-pyran-4-yl)amino)phenyl)piperazin-1-yl)-3-oxopropoxy)propanamido)-3,3-dimethylbutanoyl)-4-hydroxy-N-(4-(4-methylthiazol-5-yl)benzyl)pyrrolidine-2-carboxamide], the IC50 was above 1000 nM. In the case of `Cc1ncsc1-c1ccc(CNC(=O)[C@@H]2C[C@@H](O)CN2C(=O)[C@@H](NC(=O)CCCCCCC(=O)N2CCN(c3cccc(-c4cnc5ccc(N6CCC[C@@H]6c6cccc(F)c6)nn45)n3)CC2)C(C)(C)C)cc1` [CPD-029, (2S,4R)-1-((S)-2-(8-(4-(6-(6-((R)-2-(3-Fluorophenyl)pyrrolidin-1-yl)imidazo[1,2-b]pyridazin-3-yl)pyridin-2-yl)piperazin-1-yl)-8-oxooctanamido)-3,3-dimethylbutanoyl)-4-hydroxy-N-(4-(4-methylthiazol-5-yl)benzyl)pyrrolidine-2-carboxamide], the IC50 turned out to be 74 nM. With `O=C1CCC(N2C(=O)c3cccc(NCCOCCOCCOCCC(=O)N4CCN(c5ccc(C(=O)Nc6n[nH]c7ccc(Cc8cc(F)cc(F)c8)cc67)c(NC6CCOCC6)c5)CC4)c3C2=O)C(=O)N1` (centres unmarked) [CPD-057, N-(5-(3,5-Difluorobenzyl)-1H-indazol-3-yl)-4-(4-(3-(2-(2-(2-((2-(2,6-dioxopiperidin-3-yl)-1,3-dioxoisoindolin-4-yl)amino)ethoxy)ethoxy)ethoxy)propanoyl)piperazin-1-yl)-2-((tetrahydro-2H-pyran-4-yl)amino)benzamide], the IC50 amounted to 6.4 nM. Regarding `Cc1ncsc1-c1ccc(CNC(=O)[C@@H]2C[C@@H](O)CN2C(=O)[C@@H](NC(=O)CCOCCOCCOCCOCCOCCC(=O)N2CCN(c3cccc(-c4cnc5ccc(N6CCC[C@@H]6c6cccc(F)c6)nn45)n3)CC2)C(C)(C)C)cc1` [CPD-005, (2S,4R)-1-((S)-2-(tert-butyl)-22-(4-(6-(6-((R)-2-(3-Fluorophenyl)pyrrolidin-1-yl)imidazo[1,2-b]pyridazin-3-yl)pyridin-2-yl)piperazin-1-yl)-4,22-dioxo-7,10,13,16,19-pentaoxa-3-azadocosanoyl)-4-hydroxy-N-(4-(4-methylthiazol-5-yl)benzyl)pyrrolidine-2-carboxamide], the IC50 was above 1000 nM. `Cc1ncsc1-c1ccc(CNC(=O)[C@@H]2C[C@@H](O)CN2C(=O)[C@@H](NC(=O)COCC(=O)N2CCN(c3cccc(-c4cnc5ccc(N6CCC[C@@H]6c6cccc(F)c6)nn45)n3)CC2)C(C)(C)C)cc1` [CPD-008, (2S,4R)-1-((S)-2-(2-(2-(4-(6-(6-((R)-2-(3-Fluorophenyl)pyrrolidin-1-yl)imidazo[1,2-b]pyridazin-3-yl)pyridin-2-yl)piperazin-1-yl)-2-oxoethoxy)acetamido)-3,3-dimethylbutanoyl)-4-hydroxy-N-(4-(4-methylthiazol-5-yl)benzyl)pyrrolidine-2-carboxamide]: the IC50 was above 1000 nM. For the compound `O=C1CCC(N2C(=O)c3cccc(NCCCCCC(=O)N4CCN(c5cccc(-c6cnc7ccc(N8CCC[C@@H]8c8cccc(F)c8)nn67)n5)CC4)c3C2=O)C(=O)N1` (some centres unmarked) [CPD-015], the IC50 came out at 14.9 nM. Same read-out and setting: then `O=C1CCC(N2C(=O)c3cccc(NCCCCCCC(=O)N4CCN(c5cccc(-c6cnc7ccc(N8CCC[C@@H]8c8cccc(F)c8)nn67)n5)CC4)c3C2=O)C(=O)N1` (stereo partly drawn) [CPD-009, 2-(2,6-Dioxopiperidin-3-yl)-4-((7-(4-(6-(6-((R)-2-(3-fluorophenyl)pyrrolidin-1-yl)imidazo[1,2-b]pyridazin-3-yl)pyridin-2-yl)piperazin-1-yl)-7-oxoheptyl)amino)isoindoline-1,3-dione], with 35 nM; and `O=C1CCC(N2C(=O)c3cccc(NCCCCCCCC(=O)N4CCN(c5ccc(C(=O)Nc6n[nH]c7ccc(Cc8cc(F)cc(F)c8)cc67)c(NC6CCOCC6)c5)CC4)c3C2=O)C(=O)N1` (centres unmarked) [CPD-052, N-(5-(3,5-difluorobenzyl)-1H-indazol-3-yl)-4-(4-(8-((2-(2,6-dioxopiperidin-3-yl)-1,3-dioxoisoindolin-4-yl)amino)octanoyl)piperazin-1-yl)-2-((tetrahydro-2H-pyran-4-yl)amino)benzamide], with 60 nM.

Regarding `Cc1ncsc1-c1ccc(CNC(=O)[C@@H]2C[C@@H](O)CN2C(=O)[C@@H](NC(=O)CCCCCCCCC(=O)N2CCN(c3ccc(C(=O)Nc4n[nH]c5ccc(Cc6cc(F)cc(F)c6)cc45)c(NC4CCOCC4)c3)CC2)C(C)(C)C)cc1` [CPD-034, (2S,4R)-1-((S)-2-(10-(4-(4-((5-(3,5-Difluorobenzyl)-1H-indazol-3-yl)carbamoyl)-3-((tetrahydro-2H-pyran-4-yl)amino)phenyl)piperazin-1-yl)-10-oxodecanamido)-3,3-dimethylbutanoyl)-4-hydroxy-N-(4-(4-methylthiazol-5-yl)benzyl)pyrrolidine-2-carboxamide], the IC50 amounted to 300 nM.

Staying with this experiment, now noted: Homo sapiens, 72 h; Table 3; KM12 cell viability, CellTiter-Glo, 3 days; read-out: IC50.
Turning to `O=C(CN1CCN(c2cccc(-c3cnc4ccc(N5CCC[C@@H]5c5cccc(F)c5)nn34)n2)CC1)NCCCCCCCNc1ccc2c(c1)C(=O)N(C1CCC(=O)NC1=O)C2=O` (stereo partly drawn) [TR-126, N-(7-((2-(2,6-dioxopiperidin-3-yl)-1,3-dioxoisoindolin-5-yl)amino)heptyl)-2-(4-(6-(6-((R)-2-(3-fluorophenyl)pyrrolidin-1-yl)imidazo[1,2-b]pyridazin-3-yl)pyridin-2-yl)piperazin-1-yl)acetamide], the IC50 is 12.5 nM. For the compound `O=C1CCC(N2C(=O)c3ccc(NCCOCCN4CCN(c5cccc(-c6cnc7ccc(N8CCC[C@@H]8c8cccc(F)c8)nn67)n5)CC4)cc3C2=O)C(=O)N1` (stereo partly drawn) [TR-176, 2-(2,6-Dioxopiperidin-3-yl)-5-((2-(2-(4-(6-(6-((R)-2-(3-fluorophenyl)pyrrolidin-1-yl)imidazo[1,2-b]pyridazin-3-yl)pyridin-2-yl)piperazin-1-yl)ethoxy)ethyl)amino)isoindoline-1,3-dione], the IC50 was determined as 18 nM.

As to `O=C1CCC(N2C(=O)c3ccc(CCC(=O)N4CCN(c5cccc(-c6cnc7ccc(N8CCC[C@@H]8c8cccc(F)c8)nn67)n5)CC4)cc3C2=O)C(=O)N1` (stereo partly drawn) [TR-194, 2-(2,6-Dioxopiperidin-3-yl)-5-(3-(4-(6-(6-((R)-2-(3-fluorophenyl)pyrrolidin-1-yl)imidazo[1,2-b]pyridazin-3-yl)pyridin-2-yl)piperazin-1-yl)-3-oxopropyl)isoindoline-1,3-dione], the IC50 stood at 7.4 nM. As to `O=C(CN1CCN(c2ccc(C(=O)Nc3n[nH]c4ccc(Cc5cc(F)cc(F)c5)cc34)c(NC3CCOCC3)c2)CC1)NCCCCCCCNc1ccc2c(c1)C(=O)N(C1CCC(=O)NC1=O)C2=O` (centres unmarked) [TR-157, N-(5-(3,5-Difluorobenzyl)-1H-indazol-3-yl)-4-(4-(2-((7-((2-(2,6-dioxopiperidin-3-yl)-1,3-dioxoisoindolin-5-yl)amino)heptyl)amino)-2-oxoethyl)piperazin-1-yl)-2-((tetrahydro-2H-pyran-4-yl)amino)benzamide], the 50% inhibitory concentration (IC50) is 8.3 nM.

On to `O=C(CN1CCN(c2cccc(-c3cnc4ccc(N5CCC[C@@H]5c5cccc(F)c5)nn34)n2)CC1)NCCCNc1cccc2c1C(=O)N(C1CCC(=O)NC1=O)C2=O` (stereo partly drawn) [TR-109, N-(3-((2-(2,6-dioxopiperidin-3-yl)-1,3-dioxoisoindolin-4-yl)amino)propyl)-2-(4-(6-(6-((R)-2-(3-fluorophenyl)pyrrolidin-1-yl)imidazo[1,2-b]pyridazin-3-yl)pyridin-2-yl)piperazin-1-yl)acetamide], for which the IC50 was 3.6 nM.

In the case of `O=C(CN1CCN(c2ccc(C(=O)Nc3n[nH]c4ccc(Cc5cc(F)cc(F)c5)cc34)c(NC3CCOCC3)c2)CC1)NCCCCNc1ccc2c(c1)C(=O)N(C1CCC(=O)NC1=O)C2=O` (centres unmarked) [TR-156, N-(5-(3,5-Difluorobenzyl)-1H-indazol-3-yl)-4-(4-(2-((4-((2-(2,6-dioxopiperidin-3-yl)-1,3-dioxoisoindolin-5-yl)amino)butyl)amino)-2-oxoethyl)piperazin-1-yl)-2-((tetrahydro-2H-pyran-4-yl)amino)benzamide], the IC50 was 3.3 nM.

Staying with this experiment, now noted: Homo sapiens, 72 h; Table 4; KM12 cell viability, CellTiter-Glo, 3 days; read-out: IC50.
As for `O=C1CCC(N2C(=O)c3ccc(NCCN4CCN(c5ccc(C(=O)Nc6n[nH]c7ccc(Cc8cc(F)cc(F)c8)cc67)c(NC6CCOCC6)c5)CC4)cc3C2=O)C(=O)N1` (centres unmarked) [TR-232, N-(5-(3,5-Difluorobenzyl)-1H-indazol-3-yl)-4-(4-(2-((2-(2,6-dioxopiperidin-3-yl)-1,3-dioxoisoindolin-5-yl)amino)ethyl)piperazin-1-yl)-2-((tetrahydro-2H-pyran-4-yl)amino)benzamide], the IC50 is 2.6 nM. For `O=C1CCC(N2C(=O)c3ccc(NC(=O)C4CCN(c5cccc(-c6cnc7ccc(N8CCC[C@@H]8c8cccc(F)c8)nn67)n5)CC4)cc3C2=O)C(=O)N1` (stereo partly drawn) [TR-215, N-(2-(2,6-Dioxopiperidin-3-yl)-1,3-dioxoisoindolin-5-yl)-1-(6-(6-((R)-2-(3-fluorophenyl)pyrrolidin-1-yl)imidazo[1,2-b]pyridazin-3-yl)pyridin-2-yl)piperidine-4-carboxamide], the IC50 is above 500 nM. On to `O=C1CCC(N2C[C@H](c3cccc(CN4CCN(c5cccc(-c6cnc7ccc(N8CCC[C@@H]8c8cccc(F)c8)nn67)n5)CC4)c3)OC2=O)C(=O)N1` (stereo partly drawn) [TR-235, 3-((S)-5-(3-((4-(6-(6-((R)-2-(3-Fluorophenyl)pyrrolidin-1-yl)imidazo[1,2-b]pyridazin-3-yl)pyridin-2-yl)piperazin-1-yl)methyl)phenyl)-2-oxooxazolidin-3-yl)piperidine-2,6-dione], for which the IC50 was found to be 3.3 nM. With `O=C1CCC(N2Cc3cc(N4CC(CN5CCN(c6cccc(-c7cnc8ccc(N9CCC[C@@H]9c9cccc(F)c9)nn78)n6)CC5)C4)ccc3C2=O)C(=O)N1` (stereo partly drawn) [TR-205, 3-(5-(3-((4-(6-(6-((R)-2-(3-Fluorophenyl)pyrrolidin-1-yl)imidazo[1,2-b]pyridazin-3-yl)pyridin-2-yl)piperazin-1-yl)methyl)azetidin-1-yl)-1-oxoisoindolin-2-yl)piperidine-2,6-dione], the IC50 was 122 nM.

As a reminder, the IC50 is the concentration that gives 50% inhibition.
